What was measured:
[1] = input of human simulation, cited from earlier work
in vivo [2] = conditions: male, mouse, po; for AUC(0-t): AUC0-24 h
Experimental: (§1) The Jevtana (10 mg/mL) solution contains 0.26 mg/mL polysorbate 80 and 15% (w/v) ethanol, and is adjusted to pH 2-6 with citric acid. […] The stock solution was further diluted 5-fold with water to reach a 2.5 mg/mL dosing solution for oral administration. The vehicle solution only consists of polysorbate 80, ethanol and water (1:1:8, v/v/v). […] All dosing solutions were prepared freshly on the day of the experiment.
(§2) At the termination time point of 24 hours, mice were anesthetized using an isoflurane evaporator with 3% isoflurane with 0.8 L/min air and 0.3 L/min oxygen. A final blood sample was taken using cardiac puncture, using Eppendorf tubes previously prepared with heparin as an anticoagulant. Subsequently, the anesthetized mice were sacrificed by cervical dislocation and the tissues of interest were collected. Brain, liver, spleen, kidney, small intestine, and testis were collected. The small intestinal content (SIC) was separately collected by removing this from the small intestinal tissue, which was subsequently rinsed with saline to remove possibly fecal residue. The blood samples were centrifuged at 9,000×g for 6 minutes at 4° C., and the plasma fraction was isolated and stored at −30° C. until analysis. Brain, liver, spleen, kidney, small intestinal tissue, SIC, and testis were homogenized in a FastPrep-24™ 5G homogenizer (M. P. Biomedicals, Santa Ana, CA, USA) for 1 min with 1, 3, 1, 2, 3, 2, and 1 mL of 2% (w/v) BSA in Milli-Q water, respectively. Until analysis of the samples, they were all stored at −30° C.
(§3) Pharmacokinetic parameters were estimated by non-compartmental analysis using the software package of PK solutions 2.0.2 (SUMMIT, Research Service). The area under the curve (AUC) of the plasma-concentration time curve for all the compounds was calculated using the linear trapezoidal rule without extrapolating to infinity. The peak plasma concentration (Cmax) and the time to reach peak plasma concentration (Tmax) were obtained directly from the individual raw data. For the statistical analysis and the graphs GraphPad Prism 9 (GraphPad Software Inc., La Jolla, CA, USA) was used. The statistics for the comparison of multiple groups were calculated with the one-way analysis of variance (ANOVA), whereas Sidak's post hoc correction was performed. Log-transformation before statistical analysis was applied, when variances within the groups were not homogeneously distributed. Differences were considered statistically significant when P<0.05. All data are presented as geometric mean±SD.

in vivo [3] = conditions: male, mouse, po, 25 mg/kg, Tmax
Experimental: as §1, §2, §3
The last parameter is in many cases the most useful, as it takes the overall exposure into account.

[4] = Plasma pharmacokinetics and tissue distribution 2 h after oral cabazitaxel 10 mg/kg with vehicle or 25 mg/kg ritonavir in wild-type, Oatp1a/1b−/−, Oatp1a/1b/2b1−/−, OATP1B1- and OATP1B3-transgenic mice; assay type: in vivo; conditions: ritonavir 25 mg/kg oral, cabazitaxel 10 mg/kg oral; for CLiver / Cbrain / Pbrain, brain accumulation per h / SIC (% of dose), small intestinal content: 2 h; for AUC(0-t) / Cmax / Tmax: male, FVB, mouse, plasma, po, 25 mg/kg; for AUC(0-t): AUC0-[…]
Experimental: All animals were fasted 2 to 3 hours prior to the start of the experiment to minimize variation in absorption after oral administration. […] Subsequently, cardiac puncture was performed with a heparinized needle and syringe collecting a final blood sample. […] All samples were stored at −30° C. until analysis.
Differences were considered statistically significant when P<0.05. All data are presented as geometric mean±SD.

For `CC(C)c1nc(CN(C)C(=O)N[C@H](C(=O)N[C@@H](Cc2ccccc2)C[C@H](O)[C@H](Cc2ccccc2)NC(=O)OCc2cncs2)C(C)C)cs1` [ritonavir], the “IIV CL” value [1] is listed as 46.7 CV%, the CL ([1]; source (18)) is listed as 7.72 L/h and the “IIV CV” value ([1]; source (18)) is listed as 12.8 CV%. For the same molecule, the “IIV F” value ([1]; source (18)) was 52.2 CV%, the “IIV Vc” value ([1]; source (18)) was 93.5 CV% and the “IOV CV” value ([1]; source (18)) was 22.2 CV%. The “IOV MAT” value ([1]; source (18)) was 32.1 CV%, the MAT ([1]; source (18)) was 8.45 h and the Q ([1]; source (18)) was 3.99 L/h. The V ([1]; source (18)) was 23 L, the Vp ([1]; source (18)) was 17.9 L and the AUC(0-t) (in vivo [2]; Cyp3aXAV (human CYP3A in Cyp3a−/−, FVB background), 1 mg/kg) was 0.000447 ± 0.000766 µM·h. For the same molecule, the AUC(0-t) (in vivo [2]; FVB (wild-type), 1 mg/kg) was 0.00591 ± 0.0018 µM·h, the Cmax (in vivo [2]; FVB, Cyp3aXAV, 1 mg/kg) was 0.000532 ± 0.00108 µM and the Tmax (in vivo [2]; FVB, Cyp3aXAV, 1 mg/kg) was 1.38 ± 3.25 h. For the same molecule, the AUC(0-t) (in vivo [2]; FVB, Cyp3aXAV, 10 mg/kg) was 0.075 ± 0.0188 µM·h, the Cmax (in vivo [2]; FVB, Cyp3aXAV, 10 mg/kg) was 0.0829 ± 0.0159 µM and the Tmax (in vivo [2]; FVB, Cyp3aXAV, 10 mg/kg) was 0.25 h. The Cmax (in vivo [2]; FVB, wild-type, 1 mg/kg) was 0.00576 ± 0.00138 µM, the Tmax (in vivo [2]; FVB, wild-type, 1 mg/kg) was 0.33 ± 0.13 h and the AUC(0-t) (in vivo [2]; FVB, wild-type, 10 mg/kg) was 1.44 ± 0.529 µM·h. For the same molecule, the Cmax (in vivo [2]; FVB, wild-type, 10 mg/kg) was 0.749 ± 0.322 µM, the Tmax (in vivo [2]; FVB, wild-type, 10 mg/kg) was 0.92 ± 0.2 h and the Tmax (in vivo [3]; Cyp3a−/− (FVB background)) was 2.33 ± 0.82 h. For the same molecule, the Tmax (in vivo [3]; wild-type FVB) was 2 h, the CLiver ([4]; OATP1B1-transgenic mice) was 42478 ± 7201 pmol/g and the Cbrain ([4]; OATP1B1-transgenic mice) was 277 ± 96.0 pmol/g. The “Pbrain, brain accumulation per h” value ([4]; OATP1B1-transgenic mice) was 0.012 ± 0.002 h⁻¹, the “SIC (% of dose), small intestinal content” value (“SIC (% of dose)” below) ([4]; OATP1B1-transgenic mice) was 5.81 ± 3.14 % of dose and the CLiver ([4]; OATP1B3-transgenic mice) was 45512 ± 4650 pmol/g. The Cbrain ([4]; OATP1B3-transgenic mice) was 249 ± 47.9 pmol/g, the “Pbrain, brain accumulation per h” value ([4]; OATP1B3-transgenic mice) was 0.013 ± 0.005 h⁻¹ and the “SIC (% of dose)” value ([4]; OATP1B3-transgenic mice) was 4.44 ± 2.65 % of dose. For the same molecule, the CLiver ([4]; Oatp1a/1b/2b1−/− mice) was 38153 ± 8561 pmol/g, the Cbrain ([4]; Oatp1a/1b/2b1−/− mice) was 236 ± 82.5 pmol/g and the “Pbrain, brain accumulation per h” value ([4]; Oatp1a/1b/2b1−/− mice) was 0.014 ± 0.003 h⁻¹. The “SIC (% of dose)” value ([4]; Oatp1a/1b/2b1−/− mice) was 6.03 ± 3.23 % of dose, the CLiver ([4]; Oatp1a/1b−/− mice) was 43800 ± 5797 pmol/g and the Cbrain ([4]; Oatp1a/1b−/− mice) was 306 ± 45.5 pmol/g. The “Pbrain, brain accumulation per h” value ([4]; Oatp1a/1b−/− mice) was 0.014 ± 0.003 h⁻¹, the “SIC (% of dose)” value ([4]; Oatp1a/1b−/− mice) was 3.84 ± 2.08 % of dose and the AUC(0-t) ([4]; OATP1B1-transgenic mice) was 14.3 ± 2.02 µM·h. For the same molecule, the AUC(0-t) ([4]; OATP1B3-transgenic mice) was 14.8 ± 1.22 µM·h, the AUC(0-t) ([4]; Oatp1a/1b/2b1−/− mice) was 13.1 ± 2.14 µM·h and the AUC(0-t) ([4]; Oatp1a/1b−/− mice) was 16.9 ± 3.95 µM·h. For the same molecule, the AUC(0-t) ([4]; wild-type mice) was 5.96 ± 1.15 µM·h, the Cmax ([4]; OATP1B1-transgenic mice) was 8.35 ± 1.3 µM and the Tmax ([4]; OATP1B1-transgenic mice) was 1.17 h. It also gave a Cmax ([4]; OATP1B3-transgenic mice) of 8.67 ± 1.15 µM, a Tmax ([4]; OATP1B3-transgenic mice) of 1.33 h and a Cmax ([4]; Oatp1a/1b/2b1−/− mice) of 7.74 ± 1.12 µM. The Tmax ([4]; Oatp1a/1b/2b1−/− mice) was 1 h, the Cmax ([4]; Oatp1a/1b−/− mice) was 11.2 ± 5.21 µM and the Tmax ([4]; Oatp1a/1b−/− mice) was 1.21 h. For the same molecule, the Cmax ([4]; wild-type mice) was 3.62 ± 0.765 µM, the Tmax ([4]; wild-type mice) was 0.667 h and the CLiver ([4]; wild-type mice) was 44998 ± 6028 pmol/g. For the same molecule, the “Pbrain, brain accumulation per h” value ([4]; wild-type mice) was 0.010 ± 0.002 h⁻¹ and the “SIC (% of dose)” value ([4]; wild-type mice) was 3.90 ± 2.22 % of dose.

From patent US20240226072A1 (Stichting Het Nederlands Kanker Instituut, priority 2022, published 2024)
